The source of these data is patent US9309222B2, “Phenyl linked quinolinyl modulators of RORγt” (Janssen Pharmaceutica NV, priority 2012, dated 2016).

The target of assay [1] is T1, human RORγt ligand binding domain (RORγt LBD) (Homo sapiens, UniProt P51449).
T1 construct: His-tag (N); TurboTEV protease cleavage site (ENLYFQG) (N); made in house; host or cells: E. coli (pHIS1, modified pET vector)
T1 sequence (P51449 with tags, fused parts or gaps): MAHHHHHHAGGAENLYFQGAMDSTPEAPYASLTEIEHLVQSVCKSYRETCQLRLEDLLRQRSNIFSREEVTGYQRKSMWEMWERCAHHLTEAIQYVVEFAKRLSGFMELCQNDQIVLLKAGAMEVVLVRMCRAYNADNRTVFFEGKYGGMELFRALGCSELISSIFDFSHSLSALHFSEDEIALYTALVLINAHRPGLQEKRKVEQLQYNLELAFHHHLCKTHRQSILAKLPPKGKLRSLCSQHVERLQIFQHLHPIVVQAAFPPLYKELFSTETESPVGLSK
Kind of assay: RORγt ThermoFluor assay (thermal shift, ligand binding affinity). Conditions: estimated from concentration response of thermal shift. The essentials:
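Thermal shift of 0.065 mg/mL RORγt with 60 μM 1,8-ANS in 100 mM Hepes pH 7.0, 10 mM NaCl, 2.5 mM GSH, 0.002% Tween-20. Compounds in 1:2 series from 10 mM DMSO stock. Dye fluorescence (500 nm emission) tracked versus temperature; ΔTm used to derive KD.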

For assay [2], the target named is T2, human RORγt LBD (Homo sapiens, UniProt P51449).
T2 construct: expressed in transfected cells
T2 sequence (P51449 258-518): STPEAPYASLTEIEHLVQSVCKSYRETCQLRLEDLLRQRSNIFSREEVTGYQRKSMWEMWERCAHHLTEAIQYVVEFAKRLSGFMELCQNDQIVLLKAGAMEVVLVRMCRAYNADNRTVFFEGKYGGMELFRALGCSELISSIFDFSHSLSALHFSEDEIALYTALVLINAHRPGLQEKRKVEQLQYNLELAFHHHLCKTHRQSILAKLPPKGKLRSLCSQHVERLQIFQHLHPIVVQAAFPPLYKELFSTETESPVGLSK
The assay can be described thus: RORγt reporter assay (GAL4-RORγt LBD luciferase in HEK293T cells). The assay is classed as cell-based. To be noted: for IC50: HEK293T cells, 24 hours compound treatment; for inhibition at 6 µM: HEK-293T, read-out: RORγt reporter Assay, % inhibition @ 6 μM, HEK293T cells, 6 μM compound. A digest of the protocol: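 Read-out is the firefly-to-renilla luciferase ratio versus compound concentration, after 24 h compound exposure of cells in phenol-red-free DMEM/5% lipid-reduced FCS. Cells were HEK293T bulk-transfected with a GAL4-responsive firefly reporter (pGL4.31) and GAL4 DBD–wild-type human RORγt LBD fusion (pBIND, renilla as transfection/viability control).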
For orientation: In a reporter assay the amount or activity of a reporter protein is the signal.

The test system of assay [3] is IL-17 production by CD4 T cells. The assay can be described thus: Human Th17 assay (IL-17 production by CD4 T cells under Th17 differentiation conditions). The assay is classed as cell-based. To be noted: Homo sapiens, CD4+ T, 72 h, IL-17 in supernatant after 3 days. A digest of the protocol:
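Primary CD4+ T cells from healthy-donor PBMC, preincubated 1 h with titrated compound (0.2% DMSO), then activated with anti-CD3/CD28 beads plus anti-IL4, anti-IFNγ, IL1β, IL23, IL6, TGFβ and IL2.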

Counter-ions that a name gives are not always drawn.

What is called Kd is the equilibrium constant for the complex coming apart. The term IC50 denotes the concentration at which inhibition is half-maximal. A lower IC50 goes with inhibition by little substance. As a reminder, the inhibition is the relative decrease from the control value, in per cent.

As to `CCOc1nc2ccc(C(O)(c3ccncc3)c3cncn3C)cc2c(Cl)c1-c1ccccc1` (stereo not drawn) [Example 88, (4-Chloro-2-ethoxy-3-phenylquinolin-6-yl)(1-methyl-1H-imidazol-5-yl)pyridin-4-ylmethanol•TFA], the Kd in assay [1] was 9.6 nM. The results for the IC50 in assay [2] and in assay [3] were 37 nM and 68 nM, respectively. Moreover, the inhibition at 6 µM in assay [2] was determined as 100%.
The corresponding values for `CC(C)Oc1nc2ccc(C(O)(c3ccncc3)c3cncn3C)cc2c(Cl)c1-c1ccccc1` (stereo not drawn) [Example 89, [4-Chloro-2-(1-methylethoxy)-3-phenylquinolin-6-yl](1-methyl-1H-imidazol-5-yl)pyridin-4-ylmethanol•TFA] are 34 nM, 160 nM, 300 nM and 99%.
The corresponding values for `CC(C)Oc1nc2ccc(C(O)(c3ccncc3)c3cncn3C)cc2c(N(C)C)c1-c1ccccc1` (stereo not drawn) [Example 90, [4-(Dimethylamino)-2-(1-methylethoxy)-3-phenylquinolin-6-yl](1-methyl-1H-imidazol-5-yl)pyridin-4-ylmethanol•TFA] are 91 nM, 300 nM, 800 nM and 96%.
The corresponding values for `CCOc1nc2ccc(C(O)(c3ccncc3)c3cncn3C)cc2c(N(C)C)c1-c1ccccc1` (stereo not drawn) [Example 92, [4-(Dimethylamino)-2-ethoxy-3-phenylquinolin-6-yl](1-methyl-1H-imidazol-5-yl)pyridin-4-ylmethanol•TFA] are 44 nM, 120 nM, 150 nM and 100%.
In the case of `CC(=O)N1CCC(C(O)(c2cccnc2)c2ccc3nc(Cl)c(-c4ccccc4)c(Cl)c3c2)CC1` (stereo not drawn) [Example 95, (1-Acetylpiperidin-4-yl)(2,4-dichloro-3-phenylquinolin-6-yl)pyridin-3-ylmethanol•TFA], the Kd in assay [1] was 23 nM. In assay [2], the IC50 is 500 nM and the inhibition at 6 µM was found to be 98%. Further, the IC50 in assay [3] is above 6000 nM.
The corresponding values for `CC(=O)N1CCCC(C(O)(c2cccnc2)c2ccc3nc(Cl)c(-c4ccccc4)c(Cl)c3c2)C1` (stereo not drawn) [Example 96, (1-Acetylpiperidin-3-yl)(2,4-dichloro-3-phenylquinolin-6-yl)pyridin-3-ylmethanol•TFA] are 29 nM, 370 nM, 98% and above 6000 nM.
For `CCc1nc2ccc(C(O)(c3ccncc3)c3cncn3C)cc2c(N(C)C)c1-c1ccccc1` (stereo not drawn) [Example 98, [4-(Dimethylamino)-2-ethyl-3-phenylquinolin-6-yl](1-methyl-1H-imidazol-5-yl)pyridin-4-ylmethanol•TFA], in assay [1], the Kd is 36 nM. The IC50 came out at 350 nM in assay [2] and 300 nM in assay [3]. The inhibition at 6 µM in assay [2] is 98%.
The corresponding values for `CCN(CC)c1nc2ccc(C(O)(c3cccnc3)c3cccc(Cl)c3)cc2c(Cl)c1-c1ccccc1` (stereo not drawn) [Example 100, (4-Chloro-2-(diethylamino)-3-phenylquinolin-6-yl)(3-chlorophenyl)pyridin-3-ylmethanol•TFA] are 350 nM, 160 nM, 150 nM and 95%.
The corresponding values for `CCN(CC)c1nc2ccc(C(O)(c3ccncc3)c3cncn3C)cc2c(C)c1-c1ccccc1` (stereo not drawn) [Example 102, [2-(Diethylamino)-4-methyl-3-phenylquinolin-6-yl](1-methyl-1H-imidazol-5-yl)pyridin-4-ylmethanol•TFA] are 41 nM, 140 nM, 150 nM and 104%.
